# Results as given in paper PMC9133015 (Nature Communications, 2022).
# Values joined by “and” are separate entries in the source; they are usually repeats but may differ in a detail not shown here. Identical values can stand only once. “Also recorded” adds a separate entry of the source.
# What was measured:
# [1] = system: PC-3 cells; assay: Cell cycle assay (PI flow cytometry); type: cell-based, human; conditions: for Cell cycle percentages ( % ) G0/G1 / Cell cycle percentages ( % ) G2/M / Cell cycle percentages ( % ) S: PC-3, replicates
# [2] = system: DU145 cells; assay: Cell cycle assay (PI flow cytometry); type: cell-based, human; conditions: for Cell cycle percentages ( % ) G0/G1 / Cell cycle percentages ( % ) G2/M / Cell cycle percentages ( % ) S: replicates
# [3] = system: 22Rv1 cells; assay: Cell cycle assay (PI flow cytometry); type: cell-based, human; conditions: for Cell cycle percentages ( % ) G0/G1 / Cell cycle percentages ( % ) G2/M / Cell cycle percentages ( % ) S: replicates
# [4] = system: PC-3 cells; assay: Apoptosis assay (Annexin V-APC/PI flow cytometry); type: cell-based, human; conditions: for Apoptosis (%): PC-3, replicates
# [5] = system: DU145 cells; assay: Apoptosis assay (Annexin V-APC/PI flow cytometry); type: cell-based, human; conditions: for Apoptosis (%): replicates
# [6] = system: 22Rv1 cells; assay: Apoptosis assay (Annexin V-APC/PI flow cytometry); type: cell-based, human; conditions: for Apoptosis (%): replicates
# [7] = system: DU145 xenograft; assay: In vivo antitumor activity, DU145 xenograft mouse model; set-up: species or system BALB/c nude mice
# [8] = PC-3 cells, concentration-dependent
# [9] = DU145 cells, concentration-dependent
# [10] = 22Rv1 cells, concentration-dependent
structure (smiles),measurement,setting,value
CCN1CCN(C(=O)c2ccc(Nc3ncc(F)c(-c4ccc5nc(N(C)C)sc5c4)n3)nc2)CC1 [YK-2-69],Cell cycle percentages ( % ) G0/G1,[1]; 0.5 µM,55.96% and 58.42% and 57.82%
same,Cell cycle percentages ( % ) G0/G1,[1]; 1 µM,58.52% and 60.06% and 62.96%
same,Cell cycle percentages ( % ) G0/G1,[1]; 2 µM,64.67% and 62.48% and 65.02%
same,Cell cycle percentages ( % ) G2/M,[1]; 0.5 µM,27.56% and 26.05% and 24.61%
same,Cell cycle percentages ( % ) G2/M,[1]; 1 µM,26.02% and 25.73% and 24.02%
same,Cell cycle percentages ( % ) G2/M,[1]; 2 µM,24.12% and 24.24% and 22.16%
same,Cell cycle percentages ( % ) S,[1]; 0.5 µM,16.48% and 15.53% and 17.57%
same,Cell cycle percentages ( % ) S,[1]; 1 µM,15.46% and 14.21% and 13.02%
same,Cell cycle percentages ( % ) S,[1]; 2 µM,11.21% and 13.28% and 12.82%
same,cell cycle (in words),[1]; [8],arrested cell cycle at the G0/G1 phase
same,Cell cycle percentages ( % ) G0/G1,"[2]; DU145, 2 μM",55.97% and 56.66% and 57.2%
same,Cell cycle percentages ( % ) G2/M,"[2]; DU145, 2 μM",25.7% and 23.86% and 21.92%
same,Cell cycle percentages ( % ) S,"[2]; DU145, 2 μM",18.33% and 19.48% and 20.88%
same,Cell cycle percentages ( % ) G0/G1,"[2]; DU145, 4 μM",57.12% and 58.35% and 59.96%
same,Cell cycle percentages ( % ) G2/M,"[2]; DU145, 4 μM",23.02% and 22.58% and 21.06%
same,Cell cycle percentages ( % ) S,"[2]; DU145, 4 μM",19.86% and 19.07% and 18.98%
same,Cell cycle percentages ( % ) G0/G1,"[2]; DU145, 8 μM",61.67% and 60.91% and 63.23%
same,Cell cycle percentages ( % ) G2/M,"[2]; DU145, 8 μM",18.53% and 21.24% and 18.93%
same,Cell cycle percentages ( % ) S,"[2]; DU145, 8 μM",19.8% and 17.85% and 17.84%
same,cell cycle (in words),[2]; [9],arrested cell cycle at the G0/G1 phase
same,Cell cycle percentages ( % ) G0/G1,"[3]; 22Rv1, 0.5 μM",58.59% and 61.06% and 63.23%
same,Cell cycle percentages ( % ) G2/M,"[3]; 22Rv1, 0.5 μM",21.63% and 20.2% and 19.61%
same,Cell cycle percentages ( % ) S,"[3]; 22Rv1, 0.5 μM",19.78% and 18.74% and 17.16%
same,Cell cycle percentages ( % ) G0/G1,"[3]; 22Rv1, 1 μM",66.26% and 67.95% and 69.26%
same,Cell cycle percentages ( % ) G2/M,"[3]; 22Rv1, 1 μM",16.83% and 16.42% and 15%
same,Cell cycle percentages ( % ) S,"[3]; 22Rv1, 1 μM",16.91% and 15.43% and 15.74%
same,Cell cycle percentages ( % ) G0/G1,"[3]; 22Rv1, 2 μM",71.88% and 73.05% and 74.35%
same,Cell cycle percentages ( % ) G2/M,"[3]; 22Rv1, 2 μM",13.63% and 11.7% and 11.68%
same,Cell cycle percentages ( % ) S,"[3]; 22Rv1, 2 μM",14.49% and 15.25% and 13.97%
same,cell cycle (in words),[3]; [10],arrested cell cycle at the G0/G1 phase
same,Apoptosis (%),[4]; 0.5 µM,5.98% and 6.29% and 6.68%
same,Apoptosis (%),[4]; 1 µM,7.85% and 8.04% and 8.54%
same,Apoptosis (%),[4]; 2 µM,12.28% and 13.62% and 14.23%
same,apoptosis (in words),[4]; [8],significant increase of the apoptotic cell population
same,Apoptosis (%),"[5]; DU145, 2 μM",9.32% and 10.11% and 8.62%
same,Apoptosis (%),"[5]; DU145, 4 μM",11.15% and 12.55% and 13.62%
same,Apoptosis (%),"[5]; DU145, 8 μM",26.62% and 31.08% and 30.25%
same,apoptosis (in words),[5]; [9],significant increase of the apoptotic cell population
same,Apoptosis (%),"[6]; 22Rv1, 0.5 μM",10.56% and 11.41% and 12.03%
same,Apoptosis (%),"[6]; 22Rv1, 1 μM",18.52% and 20.96% and 19.24%
same,Apoptosis (%),"[6]; 22Rv1, 2 μM",26.56% and 24.71% and 24.31%
same,apoptosis (in words),[6]; [10],significant increase of the apoptotic cell population
same,body weight of mice (in words),"[7]; DU145 xenograft, 200 mg/kg orally once a day",increased gradually
same,antitumor activity (in words),"[7]; DU145 xenograft, 200 mg/kg orally once a day, seven weeks, 200 mg/kg",much better antitumor activities than both enzalutamide and palbociclib; also recorded: decreased the volume of tumor since the 31st day
same,Tumor weight (Fig. 7c),"[7]; High dose, individual mice, in g (unit assumed)",0.51 and 0.47 and 0.43 and 0.45 and 0.62 and 0.73 and 0.69 and 0.41
